{
  "source": "patent US9526254B2",
  "about": "“Pesticide and repellant” (ECOSPRAY LIMITED, priority 2005, dated 2016)",
  "test_system": "cabbage root fly",
  "assay": "Swede field trials in Norway, cabbage root fly damage (four sites)",
  "format": "in vivo",
  "method": "An extensive program of non-public field trials, which included five crops of swede were carried out. The field trials design was based around multiple applications of either ECOguard® liquid (garlic juice concentrate) or granules (wood flour granules impregnated with the garlic juice concentrate) and in four out of the five swede trials was referenced against Dimethoate as a standard.",
  "data": [
    {"smiles": "CNC(=O)CSP(=S)(OC)OC", "note": "[Dimethoate]", "values": [
      {"measurement": "Combined root damage index (RDI), % Change", "setting": "in vivo", "value": "−5.8", "unit": "%"},
      {"measurement": "Combined root damage index (RDI), Ga-Fa", "setting": "in vivo", "value": 65.78},
      {"measurement": "Combined root damage index (RDI), Mid-Troms", "setting": "in vivo", "value": 40.60},
      {"measurement": "Combined root damage index (RDI), Sor Ost", "setting": "in vivo", "value": 24.92},
      {"measurement": "Combined root damage index (RDI), Toten", "setting": "in vivo", "value": 44.33},
      {"measurement": "Difference of Means (trt 1 control subtracted from trt), cabbage root fly damage", "setting": "in vivo", "value": "−0.3100"},
      {"measurement": "cabbage root fly damage, statistical analysis", "setting": "in vivo", "value": "significantly reduced damage"},
      {"measurement": "mean saleable yield (cat 1 + 2), % Change", "setting": "mean of four sites versus control", "value": "+8%"}
    ]}
  ]
}
